Assay [1] has as its system Rattus norvegicus. Briefly: Inhibition of secondary paw swelling in rat adjuvant arthritis model at 80 mg/kg b.i.d. It is filed as functional. The settings on record: intraduodenal.
Assay [2] has as its target Mitogen-activated protein kinase 8 (Homo sapiens, UniProt P45983). Briefly: Inhibition of c-Jun N-terminal kinase 1-alpha 1 at 5 uM.
For assay [3], the species on record is Rattus norvegicus. Briefly: Inhibition of secondary paw swelling in rat adjuvant arthritis model. The following applies: Rattus norvegicus; read-out: ID50 (the source's name). It is filed as functional.

The structures appear in SMILES notation.

Sequence of Mitogen-activated protein kinase 8 (P45983 whole entry): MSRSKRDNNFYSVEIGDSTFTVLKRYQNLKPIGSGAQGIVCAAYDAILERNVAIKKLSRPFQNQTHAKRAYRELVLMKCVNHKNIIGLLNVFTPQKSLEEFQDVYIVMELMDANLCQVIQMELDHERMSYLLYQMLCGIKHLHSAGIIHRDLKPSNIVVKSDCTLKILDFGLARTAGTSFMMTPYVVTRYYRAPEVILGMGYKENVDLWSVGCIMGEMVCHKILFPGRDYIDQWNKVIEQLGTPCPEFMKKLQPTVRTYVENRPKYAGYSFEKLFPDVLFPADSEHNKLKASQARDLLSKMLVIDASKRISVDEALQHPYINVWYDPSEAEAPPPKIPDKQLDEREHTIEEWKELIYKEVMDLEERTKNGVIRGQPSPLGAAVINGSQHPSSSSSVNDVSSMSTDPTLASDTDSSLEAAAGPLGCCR

With `C[S+]([O-])c1ccc(-c2nc(-c3ccc(F)cc3)c(-c3ccncc3)[nH]2)cc1` (stereo not drawn) [SB-203580], the inhibition in vivo at 80 mg/kg in the assay with Rattus norvegicus [1] was 74%. In addition, the inhibition in assay [2] is 50%. For the same molecule, the ED50 in the assay filed under Rattus norvegicus [3] is 80 mg/kg/day.

These data come from ChEMBL document CHEMBL1130598, “Pyrroles and other heterocycles as inhibitors of p38 kinase” (Bioorg Med Chem Lett, 1998).
